For 17 compounds, IC50 and DC50 results are on record in patent publication US20230117034A1, “PYRAZOLOTRIAZINES” (Bayer Aktiengesellschaft, priority 2019, published 2023).

One assay deals with CDK12/CycK (Homo sapiens, UniProt Q9NYV4). Nature of the assay: CDK12/CycK high ATP kinase assay (TR-FRET, 2 mM ATP). The class given is biochemical. The note with it: 2 mM ATP (high ATP); median; read-out: CDK12/CyclinK, 2 mM ATP (high ATP), IC50-[mol/l] (median). In short, it runs like this: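 Read-out is TR-FRET (Eu-anti-rabbit IgG, anti-phospho-c-Myc Ser62 antibody, streptavidin-XL665) after EDTA stop. Reaction ran 60 min at 22 °C using 1 µM biotin-peptide and high ATP (2 mM) with roughly 0.75 nM recombinant CDK12/CycK, after 15 min compound pre-binding; normalised emission ratios yield IC50.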
(In general: In TR-FRET formats the signal depends on donor and acceptor labels being close together.)

The target of assay [1] is T1, CYCLIN K (nuclear staining in CAL-120 cells) (Homo sapiens, UniProt O75909).
T1 construct: endogenous in cells; host or cells: CAL-120 human breast cancer cells (DSMZ ACC 459)
Nature of the assay: CYCLIN K nuclear protein level: immunofluorescence high content analysis (CAL-120). The class given is cell-based. To be noted: 24 h, 50% reduction of nuclear CCNK staining intensity, median, read-out: CYCLIN K degradation IF, DC50-[mol/l] (median). In short, it runs like this:
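Readout is automated confocal image analysis of nuclear cyclin K immunofluorescence (Hoechst nuclei) after PFA fixation. Cells were CAL-120, exposed to compound dose-response 24 h at 37 °C; values are DC50 for halving nuclear CCNK signal relative to DMSO and control wells.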

The target of assay [2] is T2, CDK12 protein level in CAL-120 breast cancer cells (Homo sapiens, UniProt Q9NYV4).
T2 construct: endogenous in cells; host or cells: CAL-120 human breast cancer cells (DSMZ ACC 459)
Nature of the assay: CDK12 protein level: Protein Simple (CDK12, CAL-120). The class given is cell-based. To be noted: CAL-120 cells, 18 h with compound, CDK12/HSP90 peak area ratio vs vehicle, median, read-out: CDK12 protein level in CAL-120 breast ca cells, DC50-[mol/l] (median). An outline of the steps: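 Cells grown 24 h, then treated with compounds for 18 h at 37° C against DMSO controls. Lysates (0.4 microgramms protein) run on Protein Simple 66-440 kDa size assay with CDK12 and HSP90 loading-control antibodies. CDK12/HSP90 peak-area ratios versus vehicle gave DC50 (50% reduction) by 4-parameter fit.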

Chain of CDK12/CycK (Q9NYV4 with tags, fused parts or gaps): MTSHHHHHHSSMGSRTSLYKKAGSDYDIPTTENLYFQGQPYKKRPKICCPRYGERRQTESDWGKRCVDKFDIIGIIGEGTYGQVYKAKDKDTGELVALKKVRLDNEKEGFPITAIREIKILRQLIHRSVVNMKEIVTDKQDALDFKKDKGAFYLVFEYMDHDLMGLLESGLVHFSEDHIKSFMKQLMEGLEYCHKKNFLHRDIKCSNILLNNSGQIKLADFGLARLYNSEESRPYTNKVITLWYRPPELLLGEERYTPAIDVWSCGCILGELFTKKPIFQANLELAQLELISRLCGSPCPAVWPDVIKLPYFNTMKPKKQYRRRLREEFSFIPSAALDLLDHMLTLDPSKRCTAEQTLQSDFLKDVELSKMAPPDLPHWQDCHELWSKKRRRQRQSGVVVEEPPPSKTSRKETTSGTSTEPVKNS
Chain of CDK12/CycK (O75909 1-300 partner limits assumed): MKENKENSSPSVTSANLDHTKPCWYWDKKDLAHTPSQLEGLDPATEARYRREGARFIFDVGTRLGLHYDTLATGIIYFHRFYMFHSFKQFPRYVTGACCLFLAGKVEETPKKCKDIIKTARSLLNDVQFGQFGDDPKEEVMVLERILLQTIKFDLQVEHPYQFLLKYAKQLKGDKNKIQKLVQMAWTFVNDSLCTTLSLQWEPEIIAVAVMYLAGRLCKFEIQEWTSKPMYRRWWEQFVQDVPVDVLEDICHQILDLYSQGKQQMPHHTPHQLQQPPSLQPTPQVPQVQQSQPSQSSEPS
T2 sequence (Q9NYV4 whole entry): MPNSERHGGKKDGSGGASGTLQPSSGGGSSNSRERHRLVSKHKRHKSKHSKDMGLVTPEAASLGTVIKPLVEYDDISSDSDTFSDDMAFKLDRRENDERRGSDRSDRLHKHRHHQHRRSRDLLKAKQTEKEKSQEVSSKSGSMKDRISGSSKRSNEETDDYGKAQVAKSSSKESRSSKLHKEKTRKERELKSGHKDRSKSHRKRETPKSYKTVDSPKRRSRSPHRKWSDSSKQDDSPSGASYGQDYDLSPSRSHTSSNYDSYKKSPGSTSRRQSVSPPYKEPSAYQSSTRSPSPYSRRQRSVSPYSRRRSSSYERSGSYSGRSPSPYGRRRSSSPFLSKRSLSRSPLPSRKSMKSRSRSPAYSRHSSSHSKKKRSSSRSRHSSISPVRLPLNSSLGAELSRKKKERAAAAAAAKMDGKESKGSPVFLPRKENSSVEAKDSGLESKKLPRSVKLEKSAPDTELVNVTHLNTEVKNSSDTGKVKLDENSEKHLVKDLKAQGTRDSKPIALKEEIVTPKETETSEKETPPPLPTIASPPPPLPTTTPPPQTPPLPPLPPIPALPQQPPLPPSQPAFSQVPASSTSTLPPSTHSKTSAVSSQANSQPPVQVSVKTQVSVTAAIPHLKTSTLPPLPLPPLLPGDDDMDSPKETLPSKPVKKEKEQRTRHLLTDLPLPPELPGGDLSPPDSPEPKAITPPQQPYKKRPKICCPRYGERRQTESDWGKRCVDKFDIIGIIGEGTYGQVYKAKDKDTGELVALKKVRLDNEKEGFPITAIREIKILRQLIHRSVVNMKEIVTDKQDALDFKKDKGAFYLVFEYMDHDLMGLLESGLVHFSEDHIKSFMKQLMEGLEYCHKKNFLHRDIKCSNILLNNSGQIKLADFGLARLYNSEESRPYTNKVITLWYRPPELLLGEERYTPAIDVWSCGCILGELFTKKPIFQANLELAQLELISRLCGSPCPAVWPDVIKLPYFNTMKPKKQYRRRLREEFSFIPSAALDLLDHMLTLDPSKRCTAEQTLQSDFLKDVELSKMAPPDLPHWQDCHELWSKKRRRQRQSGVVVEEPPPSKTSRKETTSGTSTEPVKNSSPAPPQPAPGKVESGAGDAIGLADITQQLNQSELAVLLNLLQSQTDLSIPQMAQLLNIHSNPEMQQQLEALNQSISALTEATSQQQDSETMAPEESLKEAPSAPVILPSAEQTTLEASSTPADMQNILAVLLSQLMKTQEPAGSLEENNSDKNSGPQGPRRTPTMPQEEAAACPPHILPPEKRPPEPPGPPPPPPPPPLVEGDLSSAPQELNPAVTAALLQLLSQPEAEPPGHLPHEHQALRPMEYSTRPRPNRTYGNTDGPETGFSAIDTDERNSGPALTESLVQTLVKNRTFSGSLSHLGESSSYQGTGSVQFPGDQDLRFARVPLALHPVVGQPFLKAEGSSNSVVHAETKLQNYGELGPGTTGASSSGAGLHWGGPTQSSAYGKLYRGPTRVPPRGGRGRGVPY
T2 sequence (O75909 whole entry partner): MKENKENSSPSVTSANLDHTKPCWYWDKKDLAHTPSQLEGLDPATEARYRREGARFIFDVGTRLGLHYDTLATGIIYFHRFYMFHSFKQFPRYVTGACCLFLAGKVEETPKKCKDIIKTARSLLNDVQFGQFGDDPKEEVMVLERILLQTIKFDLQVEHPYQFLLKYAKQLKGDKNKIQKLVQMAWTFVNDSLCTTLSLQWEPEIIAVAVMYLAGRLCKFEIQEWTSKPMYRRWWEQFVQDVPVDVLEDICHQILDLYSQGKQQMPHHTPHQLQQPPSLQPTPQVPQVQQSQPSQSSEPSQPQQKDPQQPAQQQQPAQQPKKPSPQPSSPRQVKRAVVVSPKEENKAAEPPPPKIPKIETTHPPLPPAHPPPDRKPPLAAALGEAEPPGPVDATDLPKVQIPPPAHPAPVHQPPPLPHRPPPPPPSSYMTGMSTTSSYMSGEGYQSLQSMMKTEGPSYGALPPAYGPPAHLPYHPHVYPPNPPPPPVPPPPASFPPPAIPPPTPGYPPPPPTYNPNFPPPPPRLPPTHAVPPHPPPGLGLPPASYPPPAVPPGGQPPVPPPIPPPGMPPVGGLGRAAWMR
T1 sequence (O75909 whole entry): as the sequence (O75909 whole entry partner) above
T1 sequence (Q9NYV4 whole entry partner): as the sequence (Q9NYV4 whole entry) above

`Brc1cnn2c(NCc3nnc(-c4ccccc4)[nH]3)nc(N3CCOCC3)nc12` [Example 24, 8-bromo-2-(morpholin-4-yl)-N-[(5-phenyl-4H-1,2,4-triazol-3-yl)methyl]pyrazolo[1,5-a][1,3,5]triazin-4-amine]: the IC50 on CDK12/CycK is 4390 nM. Moreover, the DC50 in assay [1] came out at 1.67 nM; in assay [2], 9.33 nM.
Take `Brc1cnn2c(NCc3nc4ccncc4[nH]3)nc(N3CCOCC3)nc12` [Example 22, 8-bromo-N-[(3H-imidazo[4,5-c]pyridin-2-yl)methyl]-2-(morpholin-4-yl)pyrazolo[1,5-a][1,3,5]triazin-4-amine]: the IC50 at CDK12/CycK is 4000 nM. Moreover, the DC50 in assay [2] stood at 118 nM.
For `Fc1ccc2[nH]c(CNc3nc(N4CCOCC4)nc4c(Br)cnn34)nc2c1F` [Example 25, 8-bromo-N-[(4,5-difluoro-1H-benzimidazol-2-yl)methyl]-2-(morpholin-4-yl)pyrazolo[1,5-a][1,3,5]triazin-4-amine], at CDK12/CycK, the IC50 came out at 731 nM. In addition, the DC50 in assay [1] was 0.263 nM; in assay [2], below 1 nM.
Turning to `CC1CN(C)CCN1c1nc(NCc2nc3ccccc3[nH]2)n2ncc(Br)c2n1` (single isomer, unassigned; enantiomer 1) [Example 260, N-(1H-benzimidazol-2-ylmethyl)-8-bromo-2-[(2R or S)-2,4-dimethylpiperazin-1-yl]pyrazolo[1,5-a][1,3,5]triazin-4-amine (Enantiomer 1)], the IC50 at CDK12/CycK amounted to 12200 nM. Besides, the results for the DC50 in assay [1] and in assay [2] were 0.152 nM and below 1 nM, respectively.
With `Brc1cnn2c(NCc3nc4c([nH]3)CCCC4)nc(N3CCOCC3)nc12` [Example 21, 8-bromo-2-(morpholin-4-yl)-N-[(4,5,6,7-tetrahydro-1H-benzimidazol-2-yl)methyl]pyrazolo[1,5-a][1,3,5]triazin-4-amine], at CDK12/CycK, the IC50 stood at 9640 nM. Moreover, the DC50 in assay [2] was above 100 nM.
Regarding `CN[C@@H]1CCN(c2nc(NCc3nc4ccccc4[nH]3)n3ncc(Br)c3n2)C1` [Example 253, N-[(1H-benzimidazol-2-yl)methyl]-8-bromo-2-[(3R)-3-(methylamino)pyrrolidin-1-yl]pyrazolo[1,5-a][1,3,5]triazin-4-amine], the IC50 at CDK12/CycK is above 20000 nM. For the same compound, the DC50 in assay [1] was found to be 1.82 nM.
For `c1ccc2[nH]c(CNc3nc(N4CCNCC4)nc4c(C5CC5)cnn34)nc2c1` [Example 247, N-[(1H-benzimidazol-2-yl)methyl]-8-cyclopropyl-2-(piperazin-1-yl)pyrazolo[1,5-a][1,3,5]triazin-4-amine] the same measures were 14700 nM and 0.933 nM.
The like results for `Fc1ccc2[nH]c(CNc3nc(N4CCOCC4)nc4c(C5CC5(F)F)cnn34)nc2c1F` (stereo not drawn) [Example 278, N-[(4,5-difluoro-1H-benzimidazol-2-yl)methyl]-8-(2,2-difluorocyclopropyl)-2-(morpholin-4-yl)pyrazolo[1,5-a][1,3,5]triazin-4-amine] were, in that order, 2440 nM and 0.728 nM.
For the compound `CC1(N)CCN(c2nc(NCc3nc4ccccc4[nH]3)n3ncc(Br)c3n2)CC1` [Example 290, 2-(4-amino-4-methylpiperidin-1-yl)-N-[(1H-benzimidazol-2-yl)methyl]-8-bromopyrazolo[1,5-a][1,3,5]triazin-4-amine], on CDK12/CycK, the IC50 is above 19800 nM. Further, the DC50 in assay [1] turned out to be 8.58 nM.
The like results for `Clc1cc2nc(CNc3nc(N4CCOCC4)nc4c(C5CC5)cnn34)[nH]c2cc1Cl` [Example 301, 8-cyclopropyl-N-[(5,6-dichloro-1H-benzimidazol-2-yl)methyl]-2-(morpholin-4-yl)pyrazolo[1,5-a][1,3,5]triazin-4-amine] were, in that order, 1180 nM and 0.59 nM.
With `CN(CC(C)(C)O)c1nc(NCc2nc3cc(F)c(Cl)cc3[nH]2)n2ncc(C3CC3)c2n1` [Example 317, 1-[(4-{[(6-chloro-5-fluoro-1H-benzimidazol-2-yl)methyl]amino}-8-cyclopropylpyrazolo[1,5-a][1,3,5]triazin-2-yl)(methyl)amino]-2-methylpropan-2-ol], at CDK12/CycK, the IC50 worked out at 979 nM. The DC50 in assay [1] came out at 0.347 nM.
For `Cc1ccnc2[nH]c(CNc3nc(N4CCOCC4)nc4c(Br)cnn34)nc12` [Example 20, 8-bromo-N-[(7-methyl-3H-imidazo[4,5-b]pyridin-2-yl)methyl]-2-(morpholin-4-yl)pyrazolo[1,5-a][1,3,5]triazin-4-amine], the IC50 at CDK12/CycK amounted to 1750 nM. For the same compound, the DC50 in assay [1] was determined as 1.35 nM; in assay [2], 2.6 nM.
On to `N[C@@H]1CN(c2nc(NCc3nc4ccccc4[nH]3)n3ncc(Br)c3n2)CC12CC2` [Example 251, 2-[(7S)-7-amino-5-azaspiro[2.4]heptan-5-yl]-N-[(1H-benzimidazol-2-yl)methyl]-8-bromopyrazolo[1,5-a][1,3,5]triazin-4-amine], for which the IC50 at CDK12/CycK stood at 972 nM. In addition, the DC50 in assay [1] came to 0.11 nM.
Turning to `CN1CCN(c2nc(NCc3nc4c(F)cccc4[nH]3)n3ncc(C(F)(F)F)c3n2)CC1` [Example 293, N-[(4-fluoro-1H-benzimidazol-2-yl)methyl]-2-(4-methylpiperazin-1-yl)-8-(trifluoromethyl)pyrazolo[1,5-a][1,3,5]triazin-4-amine], the IC50 at CDK12/CycK stood at 5910 nM. In assay [1], the DC50 came out at 0.385 nM.
As for `Brc1cnn2c(NCc3ncc(-c4ccccc4)[nH]3)nc(N3CCOCC3)nc12` [Example 23, 8-bromo-2-(morpholin-4-yl)-N-[(5-phenyl-1H-imidazol-2-yl)methyl]pyrazolo[1,5-a][1,3,5]triazin-4-amine], the IC50 at CDK12/CycK turned out to be 1560 nM. Also, the values for the DC50 in assay [1] and in assay [2] were 1.02 nM and below 1 nM, respectively.
As for `CN1CCN(c2nc(NCc3nc4ccccc4[nH]3)n3ncc(C(F)(F)F)c3n2)CC1` [Example 297, N-[(1H-benzimidazol-2-yl)methyl]-2-(4-methylpiperazin-1-yl)-8-(trifluoromethyl)pyrazolo[1,5-a][1,3,5]triazin-4-amine], at CDK12/CycK, the IC50 was found to be 17400 nM. Further, the DC50 in assay [1] is 0.679 nM.
The like results for `CNC1CCN(c2nc(NCc3nc4ccccc4[nH]3)n3ncc(Br)c3n2)CC1` [Example 272, N-[(1H-benzimidazol-2-yl)methyl]-8-bromo-2-[4-(methylamino)piperidin-1-yl]pyrazolo[1,5-a][1,3,5]triazin-4-amine] were, in that order, above 20000 nM and 1.38 nM.
